Assay results taken from US20240010639A1, “TRIAZINE DIONE DERIVATIVE, PREPARATION METHOD THEREFOR AND APPLICATION THEREOF IN MEDICINE” (Jiangsu Hengrui Pharmaceuticals Co., Ltd., priority 2020, published 2024).

Columns and labels:
[1] = Pharmacokinetic evaluation in beagles; assay type: in vivo; conditions: for AUC / half-life / Cmax / MRT / Vd/F / CL/F: both (Example 16), male (MYK-461), beagle, dog, plasma; for AUC: read-out: Area under curve AUC; for half-life: read-out: Half-life T1/2 (converted); for Cmax: read-out: Plasma concentration Cmax; for MRT: read-out: Residence time MRT; for Vd/F: read-out: Apparent volume of distribution Vz/F; for CL/F: read-out: Clearance CL/F
Experimental: (§1) With beagles as test animals, the plasma concentrations of the test compounds were measured by LC/MS/MS at different time points after intragastric administration and intravenous injection. The pharmacokinetic performance of the compound disclosed herein was studied in beagles and its pharmacokinetic profile was evaluated.
Pharmacokinetics of the compound of Example 16 in beagles: 8 beagles, an equal number of males and females, divided into 2 groups of 4, provided by Shanghai Medicilon Inc. Pharmacokinetics of compound MYK-461 in beagles: 6 beagles, male, divided into 2 groups of 3, provided by Shanghai Medicilon Inc.
(§2) A certain amount of the compound of Example 16 was measured out, and 5% DMSO, 30% PG, 30% PEG400 and 35% normal saline were added to prepare a clear solution.
(§3) A certain amount of compound MYK-461 was measured out, and 5% DMSO, 20% PG, 20% PEG400 and 55% normal saline were added to prepare a clear solution.
Beagles were fasted overnight and then given compounds by intragastric administration and intravenous injection at doses of 2 mg/kg and 0.5 mg/kg, respectively, and at volumes of 5 mL/kg and 2 mL/kg, respectively.
1.0-mL blood samples were collected from the jugular veins or forelimb veins of the animals in the intragastric administration group before administration and 0.25 h, 0.5 h, 1.0 h, 2.0 h, 4.0 h, 6.0 h, 8.0 h, 12.0 h and 24.0 h after administration, placed into EDTA-K2 anticoagulant tubes, and centrifuged at 10,000 rpm for 5 min (4° C.), and plasma was isolated within 1 h and stored at −80° C. before analysis. The blood collection to centrifugation process was performed under ice bath conditions. Three hours after administration, feeding was resumed.
(§4) Blood samples were collected from the animals in the intravenous injection group before administration and 5 min, 0.25 h, 0.5 h, 1.0 h, 2.0 h, 4.0 h, 8.0 h, 12.0 h and 24.0 h after administration and processed as in the intragastric administration group.
Determination of plasma concentrations in beagles after intragastric administration and intravenous injection of different concentrations of test compounds: 30 μL of beagle plasma at each time point post-dose was mixed with an internal standard solution (internal standard for the compound of Example 16: 100 ng/mL warfarin; internal standard for compound MYK-461: 100 ng/mL tolbutamide) and 300 μL of methanol; the mixture was vortexed for 1 min and centrifuged at 18,000 g for 7 min, and 200 μL of the supernatant was transferred to a 96-well plate; 1 μL of the supernatant was taken for LC/MS/MS analysis.

[2] = Pharmacokinetic evaluation in cynomolgus monkeys; assay type: in vivo; conditions: for AUC / half-life / Cmax / MRT / Vd/F / CL/F: both (Example 16), male (MYK-461), cynomolgus monkey, plasma; for AUC: read-out: Area under curve AUC; for half-life: read-out: Half-life T1/2 (converted); for Cmax: read-out: Plasma concentration Cmax; for MRT: read-out: Residence time MRT; for Vd/F: read-out: Apparent volume of distribution Vz/F; for CL/F: read-out: Clearance CL/F
Experimental: as §1, with “cynomolgus monkeys” for “beagles”
Pharmacokinetics of the compound of Example 16 in cynomolgus monkeys: 8 cynomolgus monkeys, an equal number of males and females, divided into 2 groups of 4, provided by Shanghai Medicilon Inc.
Pharmacokinetics of compound MYK-461 in cynomolgus monkeys: 6 cynomolgus monkeys, male, divided into 2 groups of 3, provided by Shanghai Medicilon Inc.
as §2, §3
Cynomolgus monkeys were fasted overnight and then given compounds by intragastric administration and intravenous injection at doses of 2 mg/kg and 0.5 mg/kg, respectively, and at volumes of 5 mL/kg and 2 mL/kg, respectively.
1.0-mL blood samples were collected from the forelimb veins of the animals in the intragastric administration group before administration and 0.25 h, 0.5 h, 1h, 2 h, 4 h, 6 h, 8 h, 12 h and 24 h after administration, placed into EDTA-K2 anticoagulant tubes, and centrifuged at 10,000 rpm for 5 min (4° C.), and plasma was isolated within 1 h and stored at −80° C. before analysis. The blood collection to centrifugation process was performed under ice bath conditions. Three hours after administration, feeding was resumed, and ad libitum access to water was given.
as §4
Determination of plasma concentrations in cynomolgus monkeys after intragastric administration and intravenous injection of different concentrations of test compounds: 20 μL of cynomolgus monkey plasma at each time point post-dose was mixed with an internal standard solution (internal standard for the compound of Example 16: 10 ng/mL verapamil; internal standard for compound MYK-461: 100 ng/mL camptothecin) and 400 μL of methanol; the mixture was vortexed for 1 min and centrifuged at 18,000 g for 7 min, and 200 μL of the supernatant was transferred to a 96-well plate: 2 μL of the supernatant was taken for LC/MS/MS analysis.

[3] = intravenous injection, 0.5 mg/kg
[4] = po, intragastric administration, 2 mg/kg

| T1/2 comparison (in words) [1] | AUC [1, 3] [ng·h/mL] | half-life [1, 3] [min] | Cmax [1, 3] [ng/mL] | MRT [1, 3] [h] | Vd/F [1, 4] [L/kg] | AUC [1, 4] [ng·h/mL] | CL/F [1, 4] [mL/min/kg] | half-life [1, 4] [min] | Cmax [1, 4] [ng/mL] | MRT [1, 4] [h] | Apparent volume of distribution Vz/F [1, 3] [mL/kg] | Clearance CL/F [1, 3] [mL/min/kg] | T1/2 comparison (in words) [2] | AUC [2, 3] [ng·h/mL] | half-life [2, 3] [min] | Cmax [2, 3] [ng/mL] | MRT [2, 3] [h] | Vd/F [2, 4] [L/kg] | AUC [2, 4] [ng·h/mL] | Structure (SMILES) | other results |
| --- | --- | --- | --- | --- | --- | --- | --- | --- | --- | --- | --- | --- | --- | --- | --- | --- | --- | --- | --- | --- | --- |
| significantly shorter T1/2 | 716 | 336 | 1080 | 7.5 | 6.05 | 3100 | 9.26 | 450 | 1540 | 9.5 | 5022 | 10.4 | significantly shorter T1/2 | 1020 | 336 | 1660 | 6.8 | 10.3 | 2400 | Cc1ccc(F)c([C@H](C)Nc2nc(=O)n(C3CCOCC3)c(=O)[nH]2)c1 [Example 16, (S)-6-((1-(2-Fluoro-5-methylphenyl)ethyl)amino)-3-(tetrahydro-2H-pyran-4-yl)-1,3,5-triazine-2,4(1H,3H)-dione] | absorption profile (in words) [1]: good absorption profile; absorption profile (in words) [2]: good absorption profile; CL/F [2, 4]: 11.8 mL/min/kg; half-life [2, 4]: 618 min; Cmax [2, 4]: 553 ng/mL; MRT [2, 4]: 12.5 h; Apparent volume of distribution Vz/F [2, 3]: 3579 mL/kg; Clearance CL/F [2, 3]: 7.46 mL/min/kg |
| longer T1/2 | 1380 | 2830 | 215 | 72.2 | 3.9 | 8720 | 1.48 | 2330 | 1440 | 59.2 | 6308 | 1.63 | longer T1/2 | 976 | 1640 | 222 | 42.8 | 11.4 | 3520 | CC(C)n1c(=O)cc(N[C@@H](C)c2ccccc2)[nH]c1=O [MYK-461, reference compound] | CL/F [2, 4]: 2.34 mL/min/kg; half-life [2, 4]: 4700 min; Cmax [2, 4]: 563 ng/mL; MRT [2, 4]: 114 h; Apparent volume of distribution Vz/F [2, 3]: 8203 mL/kg; Clearance CL/F [2, 3]: 5.02 mL/min/kg |
